Reference: ChEMBL document CHEMBL1201862, “PubChem BioAssay data set” (2004)
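Growth conditions: 96-well plates. Treatment: test compound, 48 hours, 5 concentrations. Analysis: linear interpolation between bracketing concentrations; unreached endpoints set to highest concentration. The concentration for 50% growth inhibition is given as GI50.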 Calls of active or inactive are those of the source. Cut-off read from the data, not from the text of the source: active = GI50 up to about 1.1 µM and inactive = higher.

Legend:
Experiment in all cases: NCI-60 cell line screen, 48 h
[1] = test system: HOP-62
[2] = test system: COLO 205
[3] = test system: OVCAR-3
[4] = test system: CAKI-1
[5] = test system: OVCAR-5
[6] = test system: IGROV-1
[7] = test system: SF-295
[8] = test system: RXF 393
[9] = test system: ACHN
[10] = test system: RPMI-8226
[11] = test system: A498
[12] = test system: UO-31
[13] = test system: SN12C
[14] = test system: UACC-257
[15] = test system: NCI/ADR-RES
[16] = test system: MCF7
[17] = test system: Hs-578T
[18] = test system: HCT-116
[19] = test system: MDA-MB-231

Measured: GI50

CCNC1=Nc2ccc(Cl)cc2C(c2ccccc2)=NN1
inactive: [1] 24.6 µM | [2] 16.3 µM | [3] 17.5 µM | [4] 15 µM | [5] 21.8 µM | [6] 22.4 µM | [7] 19.2 µM | [8] 25.5 µM | [9] 31.7 µM | [10] 29 µM | [11] 29.9 µM | [12] 30.2 µM | [13] 32.4 µM | [14] 18 µM

N=c1c2ccccc2nc2oc3ccccc3n12
inactive: [1] 23.2 µM | [2] > 100 µM | [15] 31.5 µM | [3] > 10 µM | [4] 44.4 µM | [5] 45.3 µM | [6] 20.6 µM | [7] > 100 µM | [16] 45.1 µM | [9] 30.5 µM | [10] > 100 µM | [11] 38.7 µM | [17] 20.6 µM | [18] 36.6 µM | [12] > 100 µM | [13] > 100 µM | [14] 68.1 µM

CCN(C(=O)N[C@@H](Cc1ccccc1)C(=O)N[C@@H](CC(C)C)C(=O)NC)c1ccccc1
inactive: [1] > 100 µM | [2] > 100 µM | [15] > 100 µM | [3] > 100 µM | [4] > 100 µM | [5] > 100 µM | [19] > 100 µM | [6] > 100 µM | [7] > 100 µM | [16] > 100 µM | [8] > 100 µM | [9] > 100 µM | [10] 77.1 µM | [18] > 100 µM | [12] > 100 µM | [13] > 100 µM | [14] > 100 µM

CC(=O)Oc1ccc2c(c1)Oc1cc(C(C)=O)ccc1C21OC(=O)c2ccccc21 (stereo not given)
inactive: [1] 64.6 µM | [2] > 100 µM | [15] > 100 µM | [3] 60.3 µM | [4] > 100 µM | [5] > 100 µM | [19] > 100 µM | [6] 85.5 µM | [7] > 100 µM | [16] > 100 µM | [8] 39.7 µM | [9] > 100 µM | [10] 30.2 µM | [11] > 100 µM | [18] > 100 µM | [12] 85.5 µM | [13] > 100 µM | [14] > 100 µM

CCCCSN1C(=O)c2ccccc2C1=S
inactive: [1] > 100 µM | [2] 62.4 µM | [3] > 100 µM | [4] 32.6 µM | [5] > 100 µM | [6] > 100 µM | [7] 39.3 µM | [8] 81.3 µM | [9] > 100 µM | [10] 21 µM | [11] > 100 µM | [18] 40.6 µM | [12] 53.3 µM | [13] 71.3 µM | [14] 57.3 µM

COc1ccc(NC(C)=O)cc1N1C(=O)/C(=C\c2cc(OC)c(OC)c(OC)c2)SC1c1ccccc1 (stereo not given)
inactive: [1] 63.7 µM | [2] 39.6 µM | [15] 45.6 µM | [3] 36.1 µM | [4] 19 µM | [5] > 100 µM | [19] 19.4 µM | [6] 23.8 µM | [7] 52 µM | [16] 28.2 µM | [8] 33.5 µM | [9] 44.4 µM | [10] 17.4 µM | [11] 75 µM | [18] 30 µM | [12] 22.1 µM | [13] 40.2 µM | [14] 67.9 µM

c1ccc(CCN2CCc3[nH]c4ccccc4c3C2)cc1
inactive: [1] 19.5 µM | [2] > 10 µM | [15] 20.3 µM | [5] 20 µM | [19] 33 µM | [6] 23.9 µM | [7] 15.1 µM | [16] 18.8 µM | [8] 17.5 µM | [9] 28.1 µM | [10] > 10 µM | [11] 13.9 µM | [18] 14.5 µM | [12] 13.6 µM | [13] 27.9 µM | [14] 14.9 µM

OCC1CCCC1O (stereo not given)
inactive: [2] > 100 µM | [15] > 100 µM | [3] > 100 µM | [4] > 100 µM | [5] > 100 µM | [19] > 100 µM | [6] > 100 µM | [7] > 100 µM | [16] > 100 µM | [8] > 100 µM | [9] > 100 µM | [10] > 100 µM | [11] > 100 µM | [18] > 100 µM | [12] > 100 µM | [13] > 100 µM | [14] > 100 µM

NS(=O)(=O)c1ccc(N2C(=O)C(=O)N(c3ccccc3)C2=S)cc1
inactive: [1] > 100 µM | [2] > 100 µM | [15] > 100 µM | [4] > 100 µM | [5] > 100 µM | [19] > 100 µM | [6] > 100 µM | [7] > 100 µM | [8] 75.7 µM | [9] > 100 µM | [10] > 100 µM | [11] > 100 µM | [17] > 100 µM | [18] > 100 µM | [12] > 100 µM | [13] > 100 µM | [14] 37.8 µM

CN(C)P(=O)(Oc1occc1C(O)Cc1ccccc1)N(C)C (stereo not given)
inactive: [1] > 100 µM | [2] > 100 µM | [15] > 100 µM | [3] > 100 µM | [4] > 100 µM | [5] > 100 µM | [19] > 100 µM | [7] > 100 µM | [16] > 100 µM | [8] > 100 µM | [9] > 100 µM | [10] > 100 µM | [11] > 100 µM | [18] > 100 µM | [12] > 100 µM | [13] > 100 µM | [14] > 100 µM

CC(=O)Nc1ccc(NC(=O)c2c(Cl)c(Cl)c(Cl)c(Cl)c2-c2nc3ccccc3[nH]2)cc1
inactive: [1] 53.3 µM | [2] 17.6 µM | [3] 48.1 µM | [4] 38.7 µM | [5] 67.1 µM | [6] 20.5 µM | [7] 38.3 µM | [16] 26.7 µM | [8] 29.4 µM | [9] 39.2 µM | [10] 23 µM | [11] 35 µM | [17] 77.4 µM | [18] 32.1 µM | [12] 47.5 µM | [13] 35.4 µM | [14] 40.1 µM

N=C(N)SCc1ccc(N=C=S)cc1
inactive: [1] 16.6 µM | [2] 13.4 µM | [15] 16.9 µM | [4] 12.7 µM | [5] 14.4 µM | [19] 7.74 µM | [6] 12.9 µM | [7] 17.1 µM | [8] 3.56 µM | [9] 13.2 µM | [10] 12.4 µM | [11] 13.9 µM | [17] 12.6 µM | [18] 14 µM | [12] 12.5 µM | [13] 14.5 µM | [14] 13.1 µM
